Reference: patent US20250376473A1, “PRMTS INHIBITOR AND USE THEREOF” (Cytosinlab Therapeutics Co., Ltd., priority 2022, published 2025)
Where two headings read alike, the source gives them in different places.

Tests used:
HCT116 MTAP WT cells = assay: Proliferation inhibition of HCT116 cells in vitro (CellTiter Glo); type: cell-based; conditions: 6 days, 9 concentrations starting from 30 μM, read-out: Cell proliferation inhibition rate HCT116 MTAP WT IC50 (nm)
Method in brief: (§1)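 HCT116 (MTAP WT) or CRISPR MTAP-knockout HCT116 cells (100 per well) were exposed for 6 days at 37 °C to 9-point, 3-fold dilutions starting at 30 μM (WT) or 3 μM (KO), with 0.4% DMSO final. Viability was read by CellTiter-Glo luminescence, and IC50 came from a four-parameter fit.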

[1] = test system: HCT116-MTAP-KO cells (HCT116 MTAP null); assay: Proliferation inhibition of HCT116 MTAP-KO cells in vitro (CellTiter Glo); type: cell-based; conditions: 6 days, 9 concentrations starting from 3 μM, read-out: Cell proliferation inhibition rate HCT116 MTAP null IC50 (nm)
Method in brief: as §1

| IC50 (HCT116 MTAP WT cells; Homo sapiens, HCT-116, 144 h) | IC50 ([1]; HCT116-MTAP null, 144 h) | IC50 (HCT116 MTAP WT cells) | IC50 [1] | SMILES |
| --- | --- | --- | --- | --- |
| 1000 to 10000 nM | < 100 nM |  |  | Cc1ncc2c(N)nc3cc(F)c(C(=O)N4C(C)COCC4c4ccc(C(F)(F)F)cc4)cc3n12 (stereo not drawn) [Example 275] |
| 1000 to 10000 nM | < 100 nM |  |  | Cc1ncc2c(N)nc3cc(F)c(C(=O)N4C(C)COCC4c4ccc(OC5CC5)cc4)cc3n12 (stereo not drawn) [Example 87] |
| 100 to 1000 nM | < 100 nM |  |  | CCn1nccc1N(Cc1ccc(C(F)(F)F)cn1)C(=O)c1cc2c(cc1F)nc(N)c1cnc(C)n12 [Example 206] |

Continued, molecule first:

| SMILES | IC50 (HCT116 MTAP WT cells; Homo sapiens, HCT-116, 144 h) | IC50 ([1]; HCT116-MTAP null, 144 h) | IC50 (HCT116 MTAP WT cells) | IC50 [1] |
| --- | --- | --- | --- | --- |
| Cc1ncc2c(N)nc3cc(F)c(C(=O)N(Cc4ccc(OC5CC5)cn4)c4ccnn4C)cc3n12 [Example 205] | 100 to 1000 nM | < 100 nM |  |  |
| Cc1ncc2c(N)nc3cc(F)c(C(=O)N(Cc4cnn(C5COC5)c4)c4ccnn4C)cc3n12 [Example 231] | 1000 to 10000 nM | 100 to 1000 nM |  |  |
| Cc1cnn2c1c(N)nc1ccc(C(=O)N(Cc3ccc(C(F)(F)F)cn3)C(C)c3ncccn3)cc12 (stereo not drawn) [Example 315] |  |  | < 100 nM | < 100 nM |
